# Data from US7595409B2, “3,4-diamino-3-cyclobutene-1,2-dione derivatives as potassium channel openers” (Janssen Pharmaceutica N.V., priority 2006, dated 2009).
# Target: T1, KATP channels (Homo sapiens, UniProt O60706)
# T1 construct: TE671 human medulloblastoma cells were obtained from ATCC; host or cells: TE671 human medulloblastoma cells
# Assay: Potassium Channel Assay (FLIPR membrane potential, TE671 cells)
# Type: cell-based
# Conditions: 30 μM test compound; TE671 human medulloblastoma cells; FLIPR Membrane Potential Assay Dye; room temperature
# Experimental: TE671 human medulloblastoma cells were obtained from ATCC and grown in Dulbecco's modified Eagle's medium (DMEM) supplemented with 10% fetal bovine serum, 100 U/ml penicillin and 100 U/ml streptomycine.
# The day before testing, the cells were plated in black 96-well plates at 50 K/well. On the day of testing, the growth media was removed, then 100 μl of FLIPR buffer (20 mM 4-(2-hydroxyethyl)-1-piperizine ethane sulfonic acid (HEPES), 120 mM NaCl, 2 mM KCl, 2 mM CaCl2, 1 mM MgCl2, 5 mM Glucose) and 100 μl of Membrane Potential Assay Dye (Molecular Devices) dissolved in FLIPR buffer were added to each well. The cells were incubated at room temperature for 15 to 30 min.
# The effect of test compounds on KATP channels were evaluated on a fluorometric imaging plate reader (FLIPR, Molecular Devices) at room temperature. After a baseline period, 50 μl of 5× stock solution of test compound prepared in FLIPR buffer was added and fluorescent change was monitored for 3 minutes. After this reading, glyburide, a KATP channel blocker, was added to a final concentration of 5 μM to check the specificity of the test compound as a KATP channel openers. Hyperpolarization resulting from KATP channel opening was observed as a decrease in fluorescent intensity.
# Representative compounds of the present invention were tested according to the procedure described above, with results as listed in Table 2 below.
# T1 sequence (O60706 1-1549 isoform O60706-2): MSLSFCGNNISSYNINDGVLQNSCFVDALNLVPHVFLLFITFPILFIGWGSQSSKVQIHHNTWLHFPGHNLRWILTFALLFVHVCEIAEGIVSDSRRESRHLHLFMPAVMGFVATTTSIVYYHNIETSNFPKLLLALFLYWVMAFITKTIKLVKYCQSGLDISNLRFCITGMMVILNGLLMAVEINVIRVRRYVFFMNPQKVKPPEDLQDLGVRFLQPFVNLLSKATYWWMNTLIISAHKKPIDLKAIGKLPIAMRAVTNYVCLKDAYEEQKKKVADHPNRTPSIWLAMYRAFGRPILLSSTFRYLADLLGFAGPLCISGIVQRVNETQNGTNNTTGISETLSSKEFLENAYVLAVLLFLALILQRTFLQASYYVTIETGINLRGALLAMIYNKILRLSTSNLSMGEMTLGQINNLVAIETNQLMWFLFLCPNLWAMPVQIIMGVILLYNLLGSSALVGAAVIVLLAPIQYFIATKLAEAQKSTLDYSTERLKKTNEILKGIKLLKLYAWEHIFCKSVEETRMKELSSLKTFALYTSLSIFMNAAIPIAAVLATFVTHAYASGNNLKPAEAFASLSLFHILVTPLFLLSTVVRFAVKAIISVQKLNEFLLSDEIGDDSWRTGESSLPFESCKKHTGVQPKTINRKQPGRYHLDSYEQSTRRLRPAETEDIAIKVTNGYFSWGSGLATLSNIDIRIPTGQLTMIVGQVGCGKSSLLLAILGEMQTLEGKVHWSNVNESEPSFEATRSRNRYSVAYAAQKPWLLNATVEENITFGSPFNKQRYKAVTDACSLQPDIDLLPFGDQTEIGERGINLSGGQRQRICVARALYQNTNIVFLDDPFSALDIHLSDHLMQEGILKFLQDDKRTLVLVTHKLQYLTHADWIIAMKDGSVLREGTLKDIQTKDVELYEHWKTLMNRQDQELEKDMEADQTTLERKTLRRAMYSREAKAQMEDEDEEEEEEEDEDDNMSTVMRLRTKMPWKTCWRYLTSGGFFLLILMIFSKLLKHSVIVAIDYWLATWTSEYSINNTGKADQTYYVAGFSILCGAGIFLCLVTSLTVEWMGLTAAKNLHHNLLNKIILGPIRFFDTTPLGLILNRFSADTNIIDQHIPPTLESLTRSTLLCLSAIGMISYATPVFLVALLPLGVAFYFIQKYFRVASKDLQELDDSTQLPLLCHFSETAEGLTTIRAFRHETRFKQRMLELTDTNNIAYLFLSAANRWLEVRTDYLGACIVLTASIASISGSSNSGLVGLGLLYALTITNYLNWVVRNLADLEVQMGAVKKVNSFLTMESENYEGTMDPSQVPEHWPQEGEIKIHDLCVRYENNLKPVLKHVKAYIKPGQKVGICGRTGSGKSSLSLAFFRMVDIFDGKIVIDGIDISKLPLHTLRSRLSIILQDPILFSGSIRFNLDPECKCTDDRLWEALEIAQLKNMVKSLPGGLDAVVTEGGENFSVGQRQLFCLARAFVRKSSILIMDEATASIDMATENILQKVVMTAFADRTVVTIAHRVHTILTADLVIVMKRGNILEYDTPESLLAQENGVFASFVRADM
# T1 sequence (Q14654 whole entry partner): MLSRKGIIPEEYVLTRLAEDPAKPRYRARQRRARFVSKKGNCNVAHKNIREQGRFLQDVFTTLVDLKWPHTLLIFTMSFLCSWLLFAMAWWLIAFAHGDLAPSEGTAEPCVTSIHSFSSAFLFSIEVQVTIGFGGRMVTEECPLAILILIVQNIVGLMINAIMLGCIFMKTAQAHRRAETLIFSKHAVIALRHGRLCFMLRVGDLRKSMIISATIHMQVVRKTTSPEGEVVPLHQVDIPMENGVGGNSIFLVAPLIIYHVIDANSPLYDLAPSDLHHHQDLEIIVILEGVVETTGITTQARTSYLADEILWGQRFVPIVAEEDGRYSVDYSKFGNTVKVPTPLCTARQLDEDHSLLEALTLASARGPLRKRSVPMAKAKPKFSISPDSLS
row,% Stimulation @ 30 μM,Structure (SMILES)
1,94%,"CCc1cc(C#N)ccc1Nc1c(NC2CCCC23CCCO3)c(=O)c1=O (centres unmarked) [Compound 1, 3-ethyl-4-[[2-(1-oxaspiro[4.4]non-6-ylamino)-3,4-dioxo-1-cyclobutene-1-yl]amino]-benzonitrile]"
2,49%,"Cc1cc(Cl)cc(Cl)c1CNc1c(NC2CCCC23CCCO3)c(=O)c1=O (centres unmarked) [Compound 3, 3-[[(2,4-dichloro-6-methylphenyl)methyl]amino]-4-(1-oxaspiro[4.4]non-6-ylamino)-3-cyclobutene-1,2-dione]"
